The test system of one series is PSMA-positive tumors. Also on record: method as in PMID 31399803. Particulars: single intravenous dose of 111 MBq; cited from earlier work.
The target in another series is T1, PSMA (Homo sapiens, UniProt Q04609).
T1 construct: host or cells: LNCaP human prostate cancer cells
In words: Saturation binding assay on intact LNCaP cells. Conditions: 1 h at 4 °C. The procedure:
The competitive inhibition assay was performed in 10^5 LNCaP cells/well as previously described. The radioligand (^177Lu-PSMA-617) was added as a 0.75 nM solution to 10 different concentrations of non-labeled, ^natLu-labeled PSMA-617 (from 0.01 to 10,000 nM). After 1 h of incubation at 4 °C, the cells were washed with ice-cold PBS, and the cell-bound radioactivity was measured in a gamma counter (PerkinElmer, Waltham, MA, USA). The IC50 (half-maximal inhibitory concentration) value was determined using GraphPad Prism version 5.0 (Graph Pad Software, San Diego, CA, USA). Determination of the dissociation constants (Kd values) was performed by saturation binding assays using LNCaP cells. A total of 10^5 cells were seeded in 96-well plates (cells in 100 µL of the RPMI medium/well), allowing adhesion and growth overnight at 37 °C and 5% CO2. […] The Kd values were determined by plotting specific binding (total binding minus unspecific binding) against the molar concentration of the added radioligands followed by nonlinear regression analysis using the GraphPad Prism 5 software. The binding affinity (Ki) of ^177/natLu-PSMA-617 was calculated using the following formula as described previously: Ki = IC50/[1 + ([radioligand]/Kd)].

Series [1] deals with bone metastases of LNCaP-luc prostate cancer. The series can be described thus: Biodistribution in mice with bone metastases of LNCaP-luc prostate cancer (gamma counter). It counts as in vivo, mouse. The procedure:
An in vivo imaging system was used for bioluminescence imaging (BLI) to visualize ASID mice with bone metastases of LNCaP-luc prostate cancer before the administration of ^177Lu-PSMA-617 (Figure 4A). Subsequently, ^177Lu-PSMA-617 (~37 MBq of Lu-177) was administered intravenously to mice with bone metastases, and NanoSPECT/CT imaging was performed at 4, 24, and 48 h post-administration (Figure 4B). Additionally, the mice were sacrificed, and their organs and tissues were extracted for quantitative analysis using a gamma counter at 1, 4, 24, and 48 h after injection (Figure 4C).
LNCaP-luc cells were harvested from culture and resuspended to 2 × 10^7 cells/mL in PBS. The cells were combined with an equal volume of Matrigel (BD Biosciences, Bedford, MA, USA) such that 5 × 10^5 cells were prepared for injection into the right tibia of anesthetized (inhaled anesthetic of 1–2% isoflurane) ASID mice. Intratibial injections were performed using a 29-gauge, 0.5-inch needle inserted through the tibial plateau of the flexed knee as described previously. The tumor was imaged, detected, and measured using a Bruker Small Animal Optical Imaging System (In Vivo Xtreme; Billerica, MA, USA). Mice were anesthetized with a mixture of oxygen and isoflurane, then intraperitoneally injected with 100 μL of D-luciferin (Xenogen; 30 mg/mL in PBS).
Mice received an intravenous injection of ^177Lu-PSMA-617 (equivalent to 37 MBq of ^177Lu) at 45 days after tumor implantation. The NanoSPECT/CT (Mediso Medical Imaging Systems, Arlington, VA, USA) was used to image in vivo. After the administration of ^177Lu-PSMA-617, mice inhaled an anesthetic containing 1–2% isoflurane during imaging acquisition. SPECT and X-ray CT images were obtained at 1, 4, 24, and 48 h after injection. NanoSPECT imaging was acquired using nine multipinhole gamma detectors and high-resolution collimators. The energy window was set to […] ± 10%; the image size was set to 256 × 256, and the field of view of 60 mm × 100 mm was used. Mice received an intravenous injection of ^177Lu-PSMA-617 (equivalent to 37 MBq of ^177Lu) at 45 days after tumor implantation. The distribution of ^177Lu-PSMA-617 in the mice bearing tumors was evaluated by a gamma counter (PerkinElmer, Waltham, MA, USA). The mice were sacrificed by carbon dioxide euthanasia at 1, 4, 24, and 48 h after administration. The blood, tumor, and normal organ/tissue were collected, and the uptake of radioactivity was measured by a gamma counter. The distribution data obtained using radioactivity count methods are plotted as %ID/g.

The term Kd denotes the free concentration of one partner at which half of the binding sites on the other are occupied at equilibrium, for simple one-to-one binding. High values mean lower affinity, low ones higher affinity.

Each structure is given as a SMILES string. Bounds are passed on as bounds.

T1 sequence (Q04609 whole entry): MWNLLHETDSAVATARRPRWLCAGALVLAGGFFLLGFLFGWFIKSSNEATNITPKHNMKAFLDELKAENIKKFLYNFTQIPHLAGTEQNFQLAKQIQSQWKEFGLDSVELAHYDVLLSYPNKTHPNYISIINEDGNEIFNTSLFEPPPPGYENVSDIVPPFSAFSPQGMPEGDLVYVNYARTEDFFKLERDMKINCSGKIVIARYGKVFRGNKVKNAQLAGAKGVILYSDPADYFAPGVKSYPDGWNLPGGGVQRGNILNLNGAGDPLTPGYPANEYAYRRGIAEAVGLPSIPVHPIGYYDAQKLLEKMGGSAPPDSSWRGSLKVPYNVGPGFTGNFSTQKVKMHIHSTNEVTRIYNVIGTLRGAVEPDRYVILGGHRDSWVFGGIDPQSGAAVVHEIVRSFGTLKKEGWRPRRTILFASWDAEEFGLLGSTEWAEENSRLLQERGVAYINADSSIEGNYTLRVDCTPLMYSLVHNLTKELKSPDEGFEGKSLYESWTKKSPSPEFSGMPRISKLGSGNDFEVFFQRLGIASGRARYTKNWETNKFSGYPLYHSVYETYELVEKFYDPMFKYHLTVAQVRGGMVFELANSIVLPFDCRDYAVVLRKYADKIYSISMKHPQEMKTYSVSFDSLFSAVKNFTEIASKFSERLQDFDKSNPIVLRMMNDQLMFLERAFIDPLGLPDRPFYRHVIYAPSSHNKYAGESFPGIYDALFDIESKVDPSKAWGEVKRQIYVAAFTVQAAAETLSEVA

As to `O=C([O-])CN1CCN(CC(=O)[O-])CCN(CC(=O)NCC2CCC(C(=O)N[C@@H](Cc3ccc4ccccc4c3)C(=O)NCCCC[C@H](NC(=O)N[C@@H](CCC(=O)O)C(=O)O)C(=O)O)CC2)CCN(CC(=O)[O-])CC1.[177Lu+3]` (stereo partly shown) [^177Lu-PSMA-617], the median survival in the series on PSMA-positive tumors is 130 days. In addition, binding at PSMA was put at a Kd of 4.36 ± 0.664 nM. Also, the tumor-to-blood ratio in series [1] (1 h post-injection) is recorded as 69.5; in series [1] (24 h post-injection (maximum)), 434.4. The tumor-to-kidney ratio in series [1] (1 h post-injection) came to 0.3; in series [1] (48 h post-injection (maximum)), 26.3. Further, the tumor-to-muscle ratio in series [1] (1 h post-injection) turned out to be 60.2; in series [1] (24 h post-injection (peak)), 857.4. In series [1] (1 h post-injection, i.v., ~37 MBq), this compound gave an uptake in kidneys of 43.83 ± 3.41 %IA/g. The “uptake in LNCaP tumors” value in series [1] (4 h post-injection, i.v., ~37 MBq) amounted to 23.31 ± 0.94 %IA/g; in series [1] (24 h post-injection, i.v., ~37 MBq) it was 12.88 ± 0.55 %IA/g. The “uptake in liver, lungs and spleen” value in series [1] (i.v., ~37 MBq) is “low uptake”. Besides, the urinary clearance in series [1] (within 24 h) is given as greater than 90%.

Source of the values: PMC12250129, “Exploring the Therapeutic Potential of ^177Lu-PSMA-617 in a Mouse Model of Prostate Cancer Bone Metastases” (International Journal of Molecular Sciences, 2025).
